{
  "source": "patent US5120641A",
  "about": "(Daiichi Pure Chemicals Co., Ltd., priority 1989, dated 1992)",
  "key": {"[1]": {"biological_target": "T1, serotonin uptake sites ([^3 H]6-nitroquipazine binding, rat brain membranes) (Rattus norvegicus, UniProt P31652)", "T1 construct": "from tissue; host or cells: rat brain minus cerebellum, pons and medulla oblongata; washed membrane homogenate", "T1 sequence (P31652 whole entry)": "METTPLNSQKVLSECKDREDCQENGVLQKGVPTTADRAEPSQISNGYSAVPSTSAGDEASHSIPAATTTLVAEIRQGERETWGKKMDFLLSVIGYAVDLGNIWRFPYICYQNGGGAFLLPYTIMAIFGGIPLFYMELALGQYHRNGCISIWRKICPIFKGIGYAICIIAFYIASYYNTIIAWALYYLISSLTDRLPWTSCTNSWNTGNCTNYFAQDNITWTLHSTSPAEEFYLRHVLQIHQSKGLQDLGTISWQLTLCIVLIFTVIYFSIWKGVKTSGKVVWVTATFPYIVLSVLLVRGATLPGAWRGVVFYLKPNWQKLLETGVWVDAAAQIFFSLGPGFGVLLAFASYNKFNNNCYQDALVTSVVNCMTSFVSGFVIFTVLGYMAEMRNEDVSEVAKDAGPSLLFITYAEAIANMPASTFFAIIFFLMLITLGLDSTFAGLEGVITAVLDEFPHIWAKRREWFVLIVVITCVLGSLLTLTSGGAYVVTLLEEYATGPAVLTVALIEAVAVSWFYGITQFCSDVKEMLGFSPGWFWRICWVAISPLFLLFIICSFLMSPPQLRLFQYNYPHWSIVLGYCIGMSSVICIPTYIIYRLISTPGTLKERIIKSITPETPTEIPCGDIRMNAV", "experiment": "Inhibition of [^3 H]6-nitroquipazine binding by several drugs", "experimental": "(§1) Rats were killed by decapitation and the brains (minus cerebellum, pons medulla and oblongata) were rapidly removed. The brain tissue was homogenized in 50 volumes of ice-cold buffer (50 mM Tris-HCl, 120 mM NaCl, 5 mM KCl, pH 7.4) with a Kinematica Polytron homogenizer at setting 5 for 30 seconds. The homogenate was centrifuged at 48,000×g for 10 minutes. The resulting pellet was resuspended in 50 volumes of ice-cold buffer and recentrifuged. The final pellet was resuspended in the same 50 volumes of buffer.\n(§2) Aliquots of membrane suspension were incubated with [^3 H]6-nitroquipazine (30-1,200 pM) at 22° C. for 2 hours for the equilibrium saturation. After the addition of 4 ml of ice-cold buffer the homogenates were rapidly filtered through Whatman GF/C filters pretreated with 0.05% polyethleneimine. The filters were washed with ice-cold buffer (3×5 ml). The radioactivity trapped by the filters was determined by a liquid scintillation counter.\nTen different concentrations of the drugs were used for each determination. Aliquots of membrane suspension were incubated with [^3 H]6-nitroquipazine at 22° C. for 2 hours. The specific binding of [^3 H]6-nitroquipazine was determined as described in Example 2.\nDrug IC50 values were defined by means of the iterative non-linear least-squares method."}, "[2]": {"biological_target": "T2, serotonin uptake sites (rat brain membranes) (Rattus norvegicus, UniProt P31652)", "T2 construct": "from tissue; host or cells: rat brain minus cerebellum, pons and medulla oblongata; washed membrane homogenate", "T2 sequence (P31652 whole entry)": "as above", "experiment": "[^3 H]6-Nitroquipazine saturation binding to rat brain membranes (Scatchard analysis)", "experimental": "as §1, §2"}, "[3]": {"biological_target": "T3, serotonin uptake sites (rat cerebral cortical membranes) (Rattus norvegicus, UniProt P31652)", "T3 construct": "The cerebral cortex of rat brain was rapidly dissected; from tissue; host or cells: rat cerebral cortex membranes (p-chloroamphetamine-treated rats)", "T3 sequence (P31652 whole entry)": "as above", "experiment": "[^3 H]6-nitroquipazine binding to cerebral cortical membranes after serotonin neuronal lesions with p-chloroamphetamine", "settings": "for Bmax / Kd: cerebral cortex, mean ± S.E.M.", "experimental": "as §2\n(§3) Rats were injected i.p. three times (24 hours interval) with p-chloroamphetamine (2.5 mg/kg), and were decapitated 7 days after final injection. The cerebral cortex of rat brain was rapidly dissected, and [^3 H]6-nitroquipazine binding to cerebral cortical membranes was examined as described previously."}, "[4]": {"biological_target": "serotonin uptake sites (rat brain regions) (Rattus norvegicus, UniProt P31652)", "sequence (P31652 whole entry)": "as above", "experiment": "Regional distribution of [^3 H]6-nitroquipazine binding in rat brain", "experimental": "as §2\nRats were killed by decapitation and the brains were dissected (cerebral cortex, striatum, hippocampus, hypothalamus, midbrain, cerebellum, pons medulla and oblongata) on ice. [^3 H]6-Nitroquipazine binding was estimated as described previously."}, "rat cerebral cortex": {"test_system": "rat cerebral cortex", "experiment": "Serotonin and 5-hydroxyindoleacetic acid content in cerebral cortex of p-chloroamphetamine lesioned rats", "format": "in vivo", "experimental": "as §3"}, "[5]": {"settings": "[…] [^3 H]6-nitroquipazine, 22° C., 2 hours"}},
  "note": "Entries after “also recorded” stand apart in the source; their conditions may differ. Read-outs that look alike come from different tables or passages of the source.",
  "data": [
    {"molecule": "O=[N+]([O-])c1ccc2nc(N3CCNCC3)ccc2c1", "note": "[6-Nitroquipazine, 6-nitro-2-piperazinylquinoline]", "values": [
      {"measurement": "Ki", "setting": "[1]; [5]", "value": "low nanomolar ranges"},
      {"measurement": "Ki", "setting": "[1]; read-out: Ki", "value": 0.128, "unit": "nM"}
    ]},
    {"molecule": "c1ccc2c(CCC3CCNCC3)c[nH]c2c1", "note": "[Indalpine]", "values": [
      {"measurement": "Ki", "setting": "[1]; [5]", "value": "low nanomolar ranges"},
      {"measurement": "Ki", "setting": "[1]; read-out: Ki", "value": 1.93, "unit": "nM"}
    ]},
    {"molecule": "O=[N+]([O-])c1ccc2nc(N3CCNCC3)ccc2c1", "note": "[[^3 H]6-nitroquipazine, Tritium-labeled 6-nitro-2-piperazinylquinoline]", "values": [
      {"measurement": "binding to rat brain membranes", "setting": "[2]; FIG. 1", "value": "bound with high affinity to rat brain membranes in a saturable and reversible fashion"},
      {"measurement": "specific binding as share of total binding", "setting": "[2]; at equilibrium, 110 pM [^3 H]6-nitroquipazine, non-specific: 1 μM paroxetine", "value": 95, "unit": "%"},
      {"measurement": "potency compared with [^3 H]imipramine and [^3 H]paroxetine", "setting": "[2]; no comparative data given", "value": "more potent than [^3 H]imipramine and [^3 H]paroxetine"},
      {"measurement": "Kd", "setting": "[2]; rat brain membranes, 22° C., 2 hours, 30-1,200 pM radioligand, Scatchard analysis, read-out: apparent equilibrium dissociation constant (Kd)", "value": 0.093, "unit": "nM"},
      {"measurement": "maximal number of binding sites (Bmax)", "setting": "[2]; rat brain membranes, 22° C., 2 hours, Scatchard analysis", "value": 832, "unit": "fmol/mg protein"},
      {"measurement": "Bmax", "setting": "[3]; control rats", "value": "616.0 ± 64.4", "unit": "fmole/mg protein"},
      {"measurement": "Kd", "setting": "[3]; control rats", "value": 0.141, "unit": "nM"},
      {"measurement": "Bmax", "setting": "[3]; rats treated with p-chloroamphetamine (2.5 mg/kg i.p. x3), ***P < 0.001 vs control", "value": "170.5 ± 44.8", "unit": "fmole/mg protein"},
      {"measurement": "Kd", "setting": "[3]; rats treated with p-chloroamphetamine (2.5 mg/kg i.p. x3), *P < 0.01 vs control", "value": "0.108 ± 0.01", "unit": "nM"},
      {"measurement": "Bmax", "setting": "[4]; Cerebellum", "value": "91.2 ± 4.0", "unit": "fmole/mg protein"},
      {"measurement": "Bmax", "setting": "[4]; Cortex", "value": "565.6 ± 28.3", "unit": "fmole/mg protein"},
      {"measurement": "Bmax", "setting": "[4]; Hippocampus", "value": "612.2 ± 35.4", "unit": "fmole/mg protein"},
      {"measurement": "Bmax", "setting": "[4]; Hypothalamus", "value": "1211.8 ± 33.2", "unit": "fmole/mg protein"},
      {"measurement": "Bmax", "setting": "[4]; Medulla oblongata", "value": "598.2 ± 25.6", "unit": "fmole/mg protein"},
      {"measurement": "Bmax", "setting": "[4]; Midbrain", "value": "1107.8 ± 30.2", "unit": "fmole/mg protein"},
      {"measurement": "Bmax", "setting": "[4]; Striatum", "value": "807.4 ± 41.5", "unit": "fmole/mg protein"},
      {"measurement": "specific binding by brain region", "setting": "[4]; rat brain regions", "value": "highest in the hypothalamus and midbrain; also recorded: moderately high in the striatum, hippocampus, medulla oblongata and cerebral cortex; also recorded: lowest in the cerebellum"}
    ]},
    {"molecule": "CC(N)Cc1ccc(Cl)cc1", "note": "(centres unmarked) [p-chloroamphetamine]", "values": [
      {"measurement": "decrease of [^3 H]6-nitroquipazine binding to cortical membranes of lesioned rats compared to controls", "setting": "[3]; p-chloroamphetamine 2.5 mg/kg i.p. three times, 7 days after final injection", "value": 72, "unit": "%"},
      {"measurement": "Kd change in lesioned rats", "setting": "[3]; p-chloroamphetamine 2.5 mg/kg i.p. three times, compared to controls", "value": "slightly decreased"},
      {"measurement": "endogenous serotonin levels and [^3 H]6-nitroquipazine binding", "setting": "rat cerebral cortex; destruction of serotonin neuron terminals by p-chloroamphetamine", "value": "decreases in endogenous serotonin levels and [^3 H]6-nitroquipazine binding"},
      {"measurement": "content of 5-hydroxyindoleacetic acid in the cerebral cortex", "setting": "rat cerebral cortex; lesioned rats, p-chloroamphetamine 2.5 mg/kg i.p. three times, control 0.2123±0.038", "value": "0.0541±0.008", "unit": "ng/mg tissue"},
      {"measurement": "content of serotonin in the cerebral cortex", "setting": "rat cerebral cortex; lesioned rats, p-chloroamphetamine 2.5 mg/kg i.p. three times, control 0.3362±0.037", "value": "0.129±0.037", "unit": "ng/mg tissue"}
    ]}
  ]
}
